Measured values from patent US11046690B2, “Pyridazinones and methods of use thereof” (Goldfinch Bio, Inc., priority 2018, dated 2021).
pIC50: −log10 of the molar value.

Molecular target: T1, TRPC5 (Homo sapiens, UniProt Q9UL62)
T1 construct: expressed in transfected cells
T1 sequence (Q9UL62 1-973): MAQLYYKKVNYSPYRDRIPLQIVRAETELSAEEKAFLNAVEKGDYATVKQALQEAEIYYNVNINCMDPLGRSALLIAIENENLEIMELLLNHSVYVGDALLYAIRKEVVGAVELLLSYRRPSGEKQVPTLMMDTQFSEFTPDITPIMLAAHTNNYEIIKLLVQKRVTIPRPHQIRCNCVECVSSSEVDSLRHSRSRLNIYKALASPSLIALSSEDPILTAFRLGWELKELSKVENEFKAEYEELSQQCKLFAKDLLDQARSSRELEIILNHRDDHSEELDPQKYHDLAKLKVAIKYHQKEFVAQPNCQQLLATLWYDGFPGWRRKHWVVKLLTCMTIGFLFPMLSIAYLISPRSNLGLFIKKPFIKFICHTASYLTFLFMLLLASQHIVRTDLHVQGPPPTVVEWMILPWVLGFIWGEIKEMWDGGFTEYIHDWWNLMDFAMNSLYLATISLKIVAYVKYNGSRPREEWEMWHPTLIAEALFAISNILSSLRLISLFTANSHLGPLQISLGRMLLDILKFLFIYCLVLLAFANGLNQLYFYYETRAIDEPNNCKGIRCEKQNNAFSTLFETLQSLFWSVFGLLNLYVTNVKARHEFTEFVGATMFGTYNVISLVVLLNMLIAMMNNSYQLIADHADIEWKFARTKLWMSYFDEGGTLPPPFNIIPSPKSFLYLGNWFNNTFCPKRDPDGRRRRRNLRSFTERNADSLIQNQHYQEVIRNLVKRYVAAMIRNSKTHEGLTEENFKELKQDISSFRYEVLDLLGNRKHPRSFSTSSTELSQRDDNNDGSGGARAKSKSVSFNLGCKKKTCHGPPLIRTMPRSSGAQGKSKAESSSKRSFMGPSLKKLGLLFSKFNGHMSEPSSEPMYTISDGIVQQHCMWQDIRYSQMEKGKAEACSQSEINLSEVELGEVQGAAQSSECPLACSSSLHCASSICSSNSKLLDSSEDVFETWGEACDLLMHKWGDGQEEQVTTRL
Assay: TRPC5 activity assay (FLIPR calcium fluorescence, Riluzole stimulation)
Assay type: cell-based
Conditions: HEK-TREx hTRPC5 cells, 30 μM Riluzole stimulation; read-out: TRPC5 (IC50 class)
Protocol: ICLN-1633 cells (HEK-TREx hTRPC5) expressing TRPC5 were generated as follows. Commercially available HekTrex-293 cells were seeded at 0.7×10^6 cells/well in a 1×6-well plate 24 hrs prior to transfection using 2 mL cell growth media containing no antibiotics (1× DMEM/high glucose (Hyclone #SH30022.02); 10% fetal bovine serum (Sigma) 2 mM sodium pyruvate, 10 mM HEPES). […] On day 2, 2 μg of plasmid DNA plus 6 μl of Xtreme-GENE HP reagent in Optimem (200 μl total volume) was prepared and incubated for 15 min at room temperature. This plasmid solution was then gently overlayed dropwise onto each well and the plate was gently swirled to mix complex with the media for approximately 30 seconds. Transfected cells were incubated at 37° C. in a 10%/CO2 incubator for 24 hrs. The transfected cells were harvested and transferred into 2×150 mm dishes containing cell growth media with no antibiotics at 37° C.
The next day selection was initiated to generate a stable pool by adding cell growth media containing 150 μg/mL Hygromycin and 5 μg/mL Blasticidin and cells were allowed to grow. Media with the selection agent was changed every 1-2 days as needed to remove dead cells. After 7 days, the hygromycin concentration was reduced to 75 μg/mL and cells growth was allowed to continue.
Single clones were selected as follows. The stable pool was diluted to 10 cells/mL and seeded (100 μl/well) into 24×96 well plates (˜1 cell/well) and allowed to grow for 7 days in cell growth media. Fresh media (100 μl) was added and the cells allowed to grow for another 1-2 weeks and then stored frozen or used immediately.
10-point dose response curves were generated using the Echo-550 acoustic dispenser. Compound source plates were made by serially diluting compound stocks to create 10 mM, 1 mM, and 0.1 mM solutions in DMSO into Echo certified LDV plates. The Echo then serially spotted 100%/DMSO stock solutions into source dose response plates to generate a 4-fold dilution scheme. 100%0/DMSO was added to the spotted dose response plates to bring the final volume to 5 μl. 300 nl of the dose response stock plate was then spotted into pre-incubation and stimulation assay plates. 50 μl of pre-incubation buffer and 100 μl of stimulation buffer was then added to the plates resulting in a final assay test concentration range of 30 μM to 0.0001 μM with a final DMSO concentration of 0.3%.
Human ICLN-1633 cells expressing were plated onto 384 well, black PDL-coated microplates and maintained in TRPC5 growth media the day prior to use for experiments. TRPC5 expression was induced by the application of 1 μg/mL tetracycline at the time of plating. […] Cells are incubated at room temperature, protected from light, for 60-90 minutes. After the incubation period, the dye is removed and replaced with 10 μl of EBSS. Cell, pre-incubation and stimulation plates are loaded onto the FLIPR-II and the assay is initiated. The FLIPR measures a 10 second baseline and then adds 10 μl of 2X compounds (or controls). Changes in fluorescence are monitored for an additional 5 minutes. After the 5 minute pre-incubation, 20 μl of 2X Riluzole (with 1X compound or controls) is added to the cell plate. The final Riluzole stimulation concentration in the assay is 30 μM. After the Riluzole addition, changes in fluorescence are monitored for an additional 5 minutes.
Compound modulation of TRPC5 calcium response was determined as follows. After the Englerin A, fluorescence was monitored for a 5-minute period. The maximum relative fluorescence response (minus the control response of 1 μM of an internal control compound known to maximally block TRPC5 calcium response, the “REF INHIB” in the formula below) was captured and exported from the FLIPR.
Compound effect is calculated as % inhibition using the following formula:
[formula] wherein “RFU” is the relative fluorescent units.

Structure (SMILES)	pIC50
CC1Cc2c(ncnc2Oc2ccc(F)cc2Cl)CN1c1cn[nH]c(=O)c1Cl (single isomer, unassigned) [Compound 117]	> 7.30
O=c1[nH]ncc(N2CCc3c(ncnc3Oc3ccc(F)cc3Cl)C2)c1Cl [Compound 104]	> 7.30
